{
  "source": "patent US9920295B2",
  "about": "“Bioreactor for isolation of rare cells and methods of use” (The Trustees of the University of Pennsylvania, priority 2012, dated 2018)",
  "type_in_all_cases": "cell-based, human",
  "key": {"[1]": {"test_system": "CD34+ cells (CFU-E, BFU-E)", "assay": "Erythroid progenitor number in the presence of Epo (flow cytometry)", "conditions": "SCF, IL-3 and Epo, 3 days", "method": "FIG. 20, comprising FIG. 20A through FIG. 20E, illustrates the functional effects of myosin-II inhibition on HSC differentiation. FIG. 20A (Left) illustrates the enrichment of polyploid MKs by Bleb from CD34^+ cells cultured in SCF and Tpo (n=4 donors). Y-axis represents the ratios between polyploid MKs and 2n+4n MKs. […] Hill coefficient=7.0. FIG. 20A (Middle) illustrates the enrichment of BFU-E relative to CFU-GM in the absence of Epo. CD34^+-derived cells were cultured with SCF and Tpo under Bleb and progenitors were enumerated by colony forming assays. […] FIG. 20A (Right) illustrates the sensitivity of erythroid progenitors against Bleb in the presence of Epo. CD34^+ cells were cultured with SCF, IL-3 and Epo for 4 days before treating with Bleb for 3 days, followed by flow cytometry with Hoechst 33342 to stain for nuclei. BFU-E=CD34^+IL-3R^+CD36^-; CFU-E=CD34^-IL-3R^-CD36^+. Absolute values were normalized to […] initial cell input and fit to dose-response curves: […] FIG. 20B is a graph depicting the limiting dilution analyses showing functional LT-HSCs after myosin inhibition. Human-CD34^+-derived cells were treated with Bleb for 3 days and injected intra-tibally into irradiated NSG mice. […] FIG. 20D illustrates the kinetics of human-CD41^+ plts in circulation were measured after transplantation of human CD34^+-derived cells and normalized by the initial number of CD41^+ cells transplanted. Areas under curves show significant differences between drug-treated and untreated. […] FIG. 20E is a graph showing that human-CD41^+ plts derived in vivo after transplantation into NSG mice show the normal plt size compared to human blood plts. […] Freshly purified bone marrow-derived human CD34^+ cells were obtained from either the Penn Xenograft Core Facility or AllCells (Emeryville, Calif.). Cells from at least 20 different donors were used in this study. Purity of the samples (>98%) was confirmed by flow cytometry with monoclonal antibody against human CD34. All experiments were performed in HSC expansion media ([…], Sigma) supplemented with 1× antibiotics, 20% BIT 9500 Serum Substitute (StemCell Technologies), 2 mM […] (Gibco) and the following human recombinant cytokines: SCF (100 ng/ml) and Tpo (100 ng/ml). In some occasions, the media was also supplemented by G-CSF (100 ng/ml), epidermal growth factor (EGF, 100 ng/ml), transforming growth factor beta 1 (TGF-beta1, 100 ng/ml), erythropoietin (EPO, 1 U/ml) and interleukin-3 (IL-3, 10 ng/ml). All cytokines were purchased from R&D Systems. After cells were cultured for 4 days, they were treated with different doses of cellular contractility inhibitors, including (±)-Blebbistatin (Bleb) (EMD Biosciences) and/or CH-223191 (Sigma) for indicated durations of up to 3 days."}, "[2]": {"test_system": "CD34+-derived cells (CFU-GM, BFU-E)", "assay": "Colony forming assay", "method": "1000-3000 CD34^+-derived cells were seeded into methylcellulose containing media (MethoCult H4434, StemCell Technologies) supplemented with SCF, GM-CSF, IL-3, Epo. They were cultured for 14 days and colonies were scored at 10× magnification based on the published morphological criteria by StemCell Technoloigies. Colony forming content was normalized per 10,000 cells seeded."}, "MKs": {"test_system": "MKs", "assay": "Proplatelet extension quantification", "method": "Three-dimensional collagen gels embedded with cells were prepared as previously published (Rhee et al., 2007, Proc Natl Acad Sci USA, 104:5425-5430). BM-derived cells were added to the collagen solution prepared by neutralizing 2.0 mg/mL collagen-I (BD Biosciences) with HSC expansion media adjusted to appropriate the pH, so that cells could be embedded to the polymerized matrices (1×10^5 cells/mL). Next, 200 μL of this collagen mixture was placed in a well of 24-well plate and incubated at 37° C. 5% CO2 overnight before being formaldehyde-fixed and processed for microscopic analysis. Washing steps were done gently using pipette to minimize disturbance of gels. After completion of staining, matrices were released from the plate by gentle shaking and transferred to glass slides in mounting medium with either a spatula or gentle pipetting.\nCells on coverslips were fixed with 4% paraformaldehyde, followed by permeabilization with 0.5% Triton X-100 in PBS for 15 min and blocking with 1% BSA in PBS for 30 min. Samples were then stained with primary antibodies (1:100 for all antibodies used) overnight at 4° C. After washing, staining with appropriate Alexa-conjugated secondary antibodies (1:400) was performed for 45 min at room temperature. Cells were washed three times with PBS and mounted in ProLong Gold antifade medium (Invitrogen). Samples were then analyzed by fluorescence microscopy. For quantitative analysis, pictures from each experiment were taken under a defined set of exposure times on the same day with 40× objectives. Intensity of labeled NMM-II proteins for each cell was analyzed by ImageJ by subtracting a background, defining a threshold of cell boundary, followed by calculation of mean intensity. At least 10 images from each experiment were analyzed from three independent experiments. For proplatelet quantification, the process length from each cell was measured by manual tracing with ImageJ. Only processes above detection limit (≥1 μm in length from cell body) were considered for statistical analysis."}},
  "note": "Like-named read-outs stand apart in the source and are kept apart here.",
  "data": [
    {"smiles": "Cc1ccc2c(c1)C(=O)C1(O)CCN(c3ccccc3)C1=N2", "note": "(racemic) [blebbistatin, (±)-blebbistatin]", "values": [
      {"measurement": "IC50", "setting": "[1]; read-out: BFU-E 2n IC50", "result": 10.9, "unit": "µM"},
      {"measurement": "IC50", "setting": "[1]; read-out: BFU-E 4n IC50", "result": 13, "unit": "µM"},
      {"measurement": "IC50", "setting": "[1]; read-out: CFU-E 2n IC50", "result": 8.7, "unit": "µM"},
      {"measurement": "IC50", "setting": "[1]; read-out: CFU-E 4n IC50", "result": 12.9, "unit": "µM"},
      {"measurement": "concentration under which BFU-E and CFU-GEMM numbers are not changed", "setting": "[2]", "result": "~15", "unit": "µM"},
      {"measurement": "IC50", "setting": "[2]; SCF and Tpo, n≥3 donors, read-out: BFU-E IC50", "result": 18.6, "unit": "µM"},
      {"measurement": "IC50", "setting": "[2]; SCF and Tpo, n≥3 donors, read-out: CFU-GM IC50", "result": 10.5, "unit": "µM"},
      {"measurement": "concentration of maximum BFU-E relative to CFU-GM ratio", "setting": "[2]; absence of Epo", "result": 12.5, "unit": "µM"},
      {"measurement": "IC50", "setting": "[2]; absence of Epo, n=3 donors, read-out: BFU-E relative to CFU-GM IC50", "result": 10, "unit": "µM"},
      {"measurement": "increase of BFU-E to CFU-GM ratio", "setting": "[2]; at 12.5 μM", "result": 2, "unit": "fold"},
      {"measurement": "increase in mean length of proplatelet extensions", "setting": "MKs; cells grown on plastic", "result": "approximately threefold"},
      {"measurement": "effect on proplatelet extensions", "setting": "MKs; cells in 3D collagen gels or on stiff, osteoid-like matrices", "result": "no effect"},
      {"measurement": "average proplatelet extension velocity", "setting": "MKs; live imaging", "result": "~1", "unit": "μm/min"}
    ]}
  ]
}
